Test systems include HL-60(TB) leukemia; HT29 colon; LOX IMVI melanoma; SF-268 CNS; SN12C renal; SNB-19 CNS; SR leukemia; UACC-62 melanoma.
Common to all, as to assay: NCI-60 cell line screen, 48 h

The structures appear in SMILES notation.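 Five compound concentrations were applied to cells in 96-well plates for 48 hours; endpoints were derived by simple linear interpolation of the resulting dose-response curve. GI50 is the concentration that inhibits growth by half. Definition used: TGI = concentration required for complete inhibition of growth.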

Consider `CSc1cnc2ccccc2c1Sc1c[nH]c2ccccc2c1=O`, for which the TGI with HL-60(TB) leukemia was 18 µM; with HT29 colon, 15.1 µM; in the test with LOX IMVI melanoma, 67.2 µM; in the test with SF-268 CNS, greater than 100 µM; in the test on SN12C renal, 76.3 µM; with SNB-19 CNS it was 65.4 µM. Moreover, the TGI with SR leukemia was greater than 52 µM; in the test on UACC-62 melanoma it was 25.1 µM.

In the case of `CC1=C(C(=O)Nc2ccccc2)C(c2ccccc2Cl)C(C(=O)Nc2ccccc2)=C(C)N1`, the TGI with HL-60(TB) leukemia worked out at 31.8 µM; with HT29 colon, 37.9 µM; in the test with LOX IMVI melanoma, 33.6 µM; in the test on SF-268 CNS, 50.5 µM; in the test with SN12C renal, 33 µM; in the test with SNB-19 CNS, 92.7 µM. Moreover, the results for the TGI in the test with SR leukemia and in the test with UACC-62 melanoma were 52.6 µM and 27.2 µM, respectively.

With `O=C(O)CCNS(=O)(=O)c1ccc2ccccc2c1`, the TGI in the test on HL-60(TB) leukemia, in the test with HT29 colon, in the test with LOX IMVI melanoma, with SF-268 CNS, in the test with SN12C renal and with SNB-19 CNS was greater than 100 µM throughout. The compound further displayed a TGI in the test on UACC-62 melanoma greater than 100 µM.

As for `CC1=C(SC#N)S(=O)(=O)N(c2ccccc2)C(C)=C1SC#N`, the TGI was greater than 100 µM with HL-60(TB) leukemia; greater than 100 µM in the test with HT29 colon; greater than 100 µM with LOX IMVI melanoma; greater than 100 µM with SF-268 CNS; greater than 100 µM with SN12C renal; 76.5 µM with SNB-19 CNS. For the same compound, the TGI in the test on SR leukemia is 65.5 µM; in the test on UACC-62 melanoma it was greater than 100 µM.

As to `COc1ccc(C2=Nc3ccccc3SC(C)C2)cc1OC` (centres undefined), the TGI in the test on HL-60(TB) leukemia was determined as 59.6 µM; in the test with HT29 colon it was 37.2 µM; with LOX IMVI melanoma, 32.9 µM; in the test with SF-268 CNS, 43.5 µM; in the test on SN12C renal, 42 µM; in the test with SNB-19 CNS it was 40.2 µM. The values for the TGI in the test with SR leukemia and in the test with UACC-62 melanoma were 57.4 µM and 32.4 µM, respectively.

Take `CCOC(=O)C1=C(O)c2ccc(C)cc2C(=O)C1=O`: the TGI with HL-60(TB) leukemia, with HT29 colon, with LOX IMVI melanoma, in the test with SF-268 CNS, in the test with SN12C renal and with SNB-19 CNS was greater than 100 µM throughout. Also, the TGI with SR leukemia and in the test with UACC-62 melanoma was greater than 100 µM each time.

As for `O=C(C(=O)n1ncc(Cl)c(Cl)c1=O)n1ncc(Cl)c(Cl)c1=O`, the TGI with HL-60(TB) leukemia is 22.6 µM; in the test on HT29 colon it was 34 µM; with LOX IMVI melanoma it was greater than 100 µM; in the test with SF-268 CNS it was greater than 100 µM; in the test on SN12C renal, greater than 65.8 µM; in the test with SNB-19 CNS it was greater than 100 µM. Besides, the TGI in the test on UACC-62 melanoma amounted to 32.2 µM.

Regarding `CCOC(=O)/C(=C/c1cccc(Cl)c1)N(CC)CC`, the TGI in the test with HL-60(TB) leukemia, in the test with HT29 colon, in the test on LOX IMVI melanoma, with SF-268 CNS, in the test on SN12C renal and with SR leukemia was greater than 100 µM each time. The compound also had a TGI in the test with UACC-62 melanoma greater than 100 µM.

Regarding `[N-]=[N+]=NCC(O)Cn1cnc2c(NC(=O)c3ccccc3)ncnc21` (centres undefined), the TGI in the test on HL-60(TB) leukemia, in the test on HT29 colon, in the test with LOX IMVI melanoma, with SF-268 CNS, in the test with SN12C renal and with SNB-19 CNS was greater than 100 µM in each case. This compound also yielded a TGI in the test on UACC-62 melanoma greater than 100 µM.

Turning to `Cc1ccc(N=C[N-]c2ccc(C)cc2)cc1.Cc1ccc(N=C[N-]c2ccc(C)cc2)cc1.O=C([O-])C(F)(F)F.O=C([O-])C(F)(F)F.[OH3+].[OH3+].[Rh+2].[Rh+2]`, the GI50 in the test on HT29 colon was 19.4 µM; in the test with LOX IMVI melanoma it was 31.1 µM; in the test with SF-268 CNS, 28.4 µM; in the test on SN12C renal, 34.9 µM; in the test on SNB-19 CNS, 58.6 µM; with UACC-62 melanoma it was 32.4 µM. Further, the TGI with HT29 colon is 42.1 µM; in the test with LOX IMVI melanoma, greater than 100 µM; in the test with SF-268 CNS, 81.6 µM; in the test on SN12C renal, greater than 100 µM; with SNB-19 CNS it was greater than 100 µM; with UACC-62 melanoma, 87.9 µM.

Regarding `Clc1ccc(-c2c3ccc(=[N+]4CCCCC4)cc-3oc3cc(N4CCCCC4)ccc23)cc1`, the GI50 was 0.0942 µM in the test on HL-60(TB) leukemia, 0.133 µM in the test with SNB-19 CNS and 0.18 µM in the test on UACC-62 melanoma. The TGI in the test on HL-60(TB) leukemia amounted to 0.471 µM; with SNB-19 CNS it was 0.313 µM; in the test with UACC-62 melanoma it was 0.452 µM.

As for `CCC(C)CC(C)CC(C)/C=C(\C)C1=C(C)CC(C)(O)O1` (centres undefined), the TGI is 79 µM with HL-60(TB) leukemia; greater than 100 µM in the test on HT29 colon; greater than 100 µM in the test on LOX IMVI melanoma; greater than 100 µM in the test with SN12C renal; greater than 100 µM with UACC-62 melanoma.

`C1CCCCc2nc3c(nc2CCC1)c1nc2c(nc1c1nc4c(nc31)CCCCCCCC4)CCCCCCCC2`: the TGI in the test with HL-60(TB) leukemia, with HT29 colon, in the test with LOX IMVI melanoma, in the test with SF-268 CNS, in the test with SN12C renal and in the test on SNB-19 CNS was greater than 100 µM each time. The TGI in the test with SR leukemia and with UACC-62 melanoma was greater than 100 µM throughout.

`COC1=CC(C2c3cc4c(cc3[C@@H](Nc3ccc(F)cc3)C3COC(=O)[C@H]23)OCO4)=CC(=O)C1=O` (some centres undefined): the TGI is greater than 21.4 µM in the test on HL-60(TB) leukemia; greater than 68.3 µM in the test with HT29 colon; 35.6 µM with LOX IMVI melanoma; 36.6 µM in the test with SF-268 CNS; 24.8 µM in the test with SN12C renal; greater than 66.5 µM in the test on SNB-19 CNS. For the same compound, the TGI with SR leukemia is greater than 23.6 µM; in the test with UACC-62 melanoma it was 20.7 µM.

As for `Cc1c(C(=O)O)n(C)c(=O)n(C)c1=O`, the TGI in the test on HL-60(TB) leukemia, in the test with HT29 colon, in the test with LOX IMVI melanoma, in the test on SF-268 CNS, with SN12C renal and in the test on SNB-19 CNS was greater than 100 µM in each case. In the test with UACC-62 melanoma, the TGI is greater than 100 µM.

As to `COc1ccccc1NC(=O)C1=C(C)NC(C)=C(C(=O)Nc2ccccc2OC)C1/C=C/c1ccccc1`, the TGI with HL-60(TB) leukemia, with HT29 colon, in the test on LOX IMVI melanoma, with SF-268 CNS, in the test on SN12C renal and with SNB-19 CNS was greater than 100 µM throughout. Besides, the TGI in the test with SR leukemia and in the test on UACC-62 melanoma was greater than 100 µM in each case.

Consider `Cc1cccc(C(=O)O)c1C(=O)c1cccc2ccccc12`, for which the TGI in the test on HT29 colon, with LOX IMVI melanoma, in the test on SF-268 CNS, in the test with SN12C renal, in the test with SNB-19 CNS and in the test on SR leukemia was greater than 100 µM in each case. In the test on UACC-62 melanoma, the TGI is greater than 100 µM.

Regarding `Cc1ccc(NC(=O)C(=O)CC(=O)c2c(C)n([O-])c3ccccc3[n+]2=O)cc1C`, the TGI in the test on HL-60(TB) leukemia, in the test on HT29 colon, with LOX IMVI melanoma, in the test with SF-268 CNS, in the test on SN12C renal and in the test with SNB-19 CNS was greater than 100 µM throughout. Further, the TGI with SR leukemia and with UACC-62 melanoma was greater than 100 µM throughout.

As to `CCCCCCCC1(c2ccc(N)cc2)CCC(=O)NC1=O` (centres undefined), the TGI was 36.6 µM in the test on HL-60(TB) leukemia; greater than 100 µM in the test on LOX IMVI melanoma; greater than 100 µM in the test on SF-268 CNS; greater than 100 µM with SN12C renal; greater than 100 µM in the test on SNB-19 CNS; greater than 100 µM with UACC-62 melanoma.

Consider `CC(C)c1cccc(C(C)C)c1N1C(=O)C(=O)C(c2nc3ccccc3o2)C(=O)C1=O`, for which the TGI with HL-60(TB) leukemia, in the test with HT29 colon, in the test on LOX IMVI melanoma, in the test on SF-268 CNS, in the test with SN12C renal and with SNB-19 CNS was greater than 100 µM in each case. In addition, in the test with UACC-62 melanoma, the TGI is greater than 100 µM.

For the compound `Cc1ccc(C)c(N2C(=O)C(=O)C(c3nc4ccccc4o3)C(=O)C2=O)c1`, the TGI in the test on HL-60(TB) leukemia is 61.3 µM; in the test on HT29 colon it was greater than 100 µM; in the test on SF-268 CNS it was greater than 100 µM; with SN12C renal it was greater than 100 µM; in the test on SNB-19 CNS, greater than 100 µM; with SR leukemia it was greater than 100 µM. This compound yielded a TGI in the test with UACC-62 melanoma greater than 100 µM.

As for `COCCOc1cc(C)cc(/C=C(C)/C=C/C2=C(C)CCCC2(C)C)n1`, the TGI in the test with HT29 colon, in the test with LOX IMVI melanoma, in the test with SF-268 CNS, in the test on SN12C renal, in the test with SNB-19 CNS and in the test with SR leukemia was greater than 100 µM throughout. In the test with UACC-62 melanoma, this compound registered a TGI greater than 100 µM.

Consider `Cc1ccc2nc(NC(=O)C(=O)C(C#N)c3ccc(Cl)cc3)sc2c1` (centres undefined), for which the TGI in the test with HT29 colon, with LOX IMVI melanoma, in the test with SF-268 CNS, in the test on SN12C renal, in the test with SNB-19 CNS and with UACC-62 melanoma was greater than 50 µM throughout.

Turning to `C/C(CN1C(=O)c2ccccc2C1=O)=N\NS(=O)(=O)c1cccc(C(=O)O)c1`, the TGI with HL-60(TB) leukemia, with HT29 colon, with SF-268 CNS, in the test on SN12C renal, with SNB-19 CNS and in the test on SR leukemia was greater than 100 µM each time. The TGI in the test on UACC-62 melanoma was greater than 100 µM.

Turning to `CCCCCC(=O)Nc1nc2nc[nH]c2c(=O)[nH]1`, the TGI in the test on HL-60(TB) leukemia, in the test on HT29 colon, with SF-268 CNS, with SN12C renal, in the test with SNB-19 CNS and with SR leukemia was greater than 100 µM each time. Besides, in the test with UACC-62 melanoma, the TGI is greater than 100 µM.
